Measured values published in patent publication US5612474A, “Acid labile immunoconjugate intermediates” (Eli Lilly and Company, priority 1994, dated 1997).
≈ marks a conversion by molar mass, not a printed value. One block for each compound: values may come before it.

How the values were obtained:
CCRF-CEM cells = assay: In vitro antitumor activity / growth inhibition of CCRF-CEM cells, 72 hours; assay type: cell-based; details: Homo sapiens, serum-free UltraCHO media, read-out: IC50 (50% inhibition of growth)
Method: The in vitro data were obtained using CCRF-CEM cells, a human leukemia cell line. Foley et al., Cancer, 18:522 (1965). These cells were grown in albumin-free UltraCHO® media (BioWhittaker, Inc., Walkersville, Md.) using standard techniques. See, e.g., G. B. Grindey, et al., Journal of Molecular Pharmacology, 16:601 (1979). Dose-response curves were generated for various compounds to determine the concentration required for 50% inhibition of growth (IC50). Cluster plates were prepared in duplicate with the compound at various concentrations. Test compounds were dissolved initially in DMSO at a concentration of 4 mg/ml and further diluted with solvent to the desired concentration. Cells in serum-free UltraCHO media were added to the well at a final concentration of 4.8×10^4 cells/well in a total volume of 2.0 ml. After 72 hours of incubation (95% air, 5% CO2), cell numbers were determined on a ZBI Coulter counter. Cell number for indicated controls at the end of incubation was usually (4-6)×10^5 cells/well. Cell viability was also measured by staining with 3-[4,5-dimethylthiazol-2-yl]-2,5-diphenyl-tetrazolium bromide (MTT) using standard techniques. R. I. Freshhey, Culture of Animal Cells: A Manual of Basic Technique, 253-354 (2d ed. 1987).
Column 1 refers to the example number of the compound tested; Column 2 depicts the in vitro cytoxicity against CCRF-CEM cells by relating the concentration of the test compound required for 50% inhibition of growth (IC50) of the cells in the well.

[1] = system: LS-174T human colon carcinoma; assay: Cytotoxicity assay of immunoconjugates, 3H-leucine uptake, 48 hours; assay type: cell-based; details: LS174T, LS 174T cells, 48 hours incubation, concentrations in terms of drug contained in conjugate
Excerpt: Table III uses several abbreviations which are defined as follows. The terms D612, COL-1, CC83, and CC49 refer to specific murine monoclonal antibodies which are described in detail in the Antibody section of the Detailed Description. […] "CR#" is an abbreviation for conjugation ratio. "MIR" refers to the molar input ratio of the linker-drug relative to the antibody.

[2] = Cardiotoxicity / toxicity of free drug versus trityl prodrug (no method described); details: for use in oncolytic therapy
[3] = system: HC-1 human colon carcinoma xenograft; assay: Antitumor activity against HC-1 human colon carcinoma xenografts in nude mice; assay type: in vivo, human tumor in CD1 Nu/Nu mice; details: for Activity (overall): overall activity over all doses
Excerpt: One of the tumor models used for showing the anti-neoplastic activity of the prodrugs of this invention were the human colon xenografts, HC-1 human colon xenograft. This tumor model was obtained from the Division of Cancer Treatment, National Cancer Institute, Tumor Bank.
First passage tumors were stored in liquid nitrogen, using standard techniques. The transplanted tumor was reestablished from the Tumor Bank every six months or as needed. The tumor was maintained by serial passage twice weekly in nude mice.
In the procedures utilized here, the tumor was removed from passage animals and minced into 1- to 3-mm cubic fragments using sterile techniques. Tumor pieces were checked for sterility using both Antibiotic Medium 1 and Brain Heart Infusion (Difco, Detroit, Mich.). The xenograft tumor pieces were implanted into the recipient CD1 Nu/Nu mice subcutaneously in an axillary site by trochar.
Drug therapy on the appropriate schedule was initiated 14 days after tumor implantation for the mice bearing the xenograft tumors. The compound being tested was mixed with 2.5% Emulphor EL620 from GAP Corporation (1:40 dilution in 0.9% saline). The total dosage volume for each administration was 0.5 ml. All animals were weighed at the beginning and end of administration of the subject compounds. Food and water were provided ad libitum.
Each control group and each dosage level of the treated groups consisted of 9 or 10 mice selected at random from the pool of implanted animals. The formulations were administered intraperitoneally. Compounds were dosed on days 1, 4, 7, and 10 for all prodrugs except for MMeT which was dosed on days 1,5, and 9.
The tumor was measured five days after treatment ended with two dimensional measurements (width and length) of the tumor taken using digital electronic calipers interfaced to a microcomputer. J. P. Worzalla, et al., Investigational New Drugs, 8:241-251 (1990). Tumor weights were calculated from these measurements using the following formula: [formula] At least one control group of an equal number of mice was treated with the same volume of 2.5% Emulphor only. The percent inhibition is determined by subtracting the ratio of the mean tumor size of the test group relative to the control group from one and multiplying the result by 100.
The results of several experiments in mice bearing the HC-1 human colon carcinoma when the Formula III compounds were administered orally are provided in Table V. Row 1 describes the particular compound being tested. Row 15 describes the overall activity of the compound. Column 1 gives the dosage level of the compound of Formula III and ADDFA in mg/kg. The second column gives the percent inhibition of tumor growth by the ADDFA given systemically. Colums 3 through 7 gives the percent inhibition of tumor growth of the compounds of Formula III.

[4] = Release studies: rate of free drug release from isopropylamide linker-drug by NMR; assay type: physicochemical
Method: The isopropylamide linker-drug (2 mg) was dissolved in 0.3 ml of dry deuterated methanol (CD3 OD). A solution of potassium phosphate buffer in deuteratured water (D2 O) (0.2 ml) of appropriate pH was added. The resulting solution was transferred to an NMR tube and heated at 37° C. and NMR spectra were recorded periodically. The rate of appearance of free drug and the rate of disappearance of the starting material were calculated from the peak integrals at: […]
NMR spectra (CD3 OD/0.1M KD2 PO4)

[5] = pH 5.40, CD3OD/0.1M KD2PO4, 37° C.
[6] = pH 6.40, CD3OD/0.1M KD2PO4, 37° C.
[7] = pH 7.40, CD3OD/0.1M KD2PO4, 37° C., extrapolated

SMILES: Nc1nc(N)c2ncn([C@@H]3O[C@H](CO)[C@@H](O)C3(F)F)c2n1 [ADDFA, 2-Amino-2'-deoxy-2',2'-difluoroadenosine, reference compound]
IC50 (CCRF-CEM cells): 0.024 µg/mL (≈ 0.0794 µM)
IC50 [1]: 0.26 µg/mL (≈ 0.86 µM)
cardiotoxicity [2]: too much cardiotoxicity
Percent Inhibition ([3]; 17.5 mg/kg): 100%
Percent Inhibition ([3]; 20.0 mg/kg): 100%
Percent Inhibition ([3]; 25.0 mg/kg): 100%
Percent Inhibition ([3]; 32.5 mg/kg): 100%
Percent Inhibition ([3]; 35.0 mg/kg): 100%
Percent Inhibition ([3]; 40.0 mg/kg): 100%
Percent Inhibition ([3]; 50.0 mg/kg): 100%
Percent Inhibition ([3]; 65.0 mg/kg): 100%
Percent Inhibition ([3]; 70.0 mg/kg): 100%
Percent Inhibition ([3]; 80.0 mg/kg): 100%
Percent Inhibition ([3]; 100.0 mg/kg): 100%
Percent Inhibition ([3]; 130.0 mg/kg): 100%
Activity (overall) [3]: +++ (95-100% Inhibition)

SMILES: COc1ccc(C(Nc2nc(N)nc3c2ncn3[C@@H]2O[C@H](CO)[C@@H](O)C2(F)F)(c2ccc(OC)cc2)c2ccc(C(=O)NC(C)C)cc2)cc1 [DMT, N-Isopropyl-4-[bis-(4-methoxyphenyl)-6-N-[2-amino-9-(2'-deoxy-2',2'-difluoro-β-ribofuranosyl)purinyl]methyl]benzamide]
IC50 (CCRF-CEM cells): 0.078 µg/mL (≈ 0.113 µM)
t1/2 [4, 5]: 3.71 h
t1/2 [4, 6]: 14.8 h
t1/2 ([4]; pH 7.40, CD3OD/0.1M KD2PO4, 37° C.): 146.3 h
Percent Inhibition ([3]; 25.0 mg/kg): 97%
Percent Inhibition ([3]; 50.0 mg/kg): 99%
Percent Inhibition ([3]; 100.0 mg/kg): 99%
Activity (overall) [3]: +++ (95-100% Inhibition)

SMILES: COc1ccc(C(Nc2nc(N)nc3c2ncn3[C@@H]2O[C@H](CO)[C@@H](O)C2(F)F)(c2ccccc2)c2ccc(C(=O)NC(C)C)cc2)cc1 (stereo partly shown) [MMT]
IC50 (CCRF-CEM cells): 0.1 µg/mL (≈ 0.152 µM)
t1/2 [4, 5]: 16.7 h
t1/2 ([4]; pH 6.40, CD3OD/0.1M KD2PO4, 37° C., extrapolated): 547 h
t1/2 [4, 7]: 800 h
Percent Inhibition ([3]; 32.5 mg/kg): 95%
Percent Inhibition ([3]; 65.0 mg/kg): 96%
Percent Inhibition ([3]; 130.0 mg/kg): 93%
Activity (overall) [3]: +++ (95-100% Inhibition)

SMILES: COc1ccc(C(Nc2nc(N)nc3c2ncn3[C@@H]2O[C@H](CO)[C@@H](O)C2(F)F)(c2ccc(C)cc2)c2ccc(C(=O)NC(C)C)cc2)cc1 (stereo partly drawn) [MMeT, N-Isopropyl-4-[4-methoxyphenyl-4'methylphenyl-6-N-[2-amino-9-(2'-deoxy-2',2'-difluoro-β-ribofuranosyl)purinyl]methyl]benzamide]
IC50 (CCRF-CEM cells): 0.1 µg/mL (≈ 0.148 µM)
Percent Inhibition ([3]; 20.0 mg/kg): 95%
Percent Inhibition ([3]; 40.0 mg/kg): 98%
Percent Inhibition ([3]; 80.0 mg/kg): 98%
Activity (overall) [3]: +++ (95-100% Inhibition)

The next lines start with results.

IC50 (CCRF-CEM cells): 0.8 µg/mL (≈ 1.24 µM)
SMILES: Cc1ccc(C(Nc2nc(N)nc3c2ncn3[C@@H]2O[C@H](CO)[C@@H](O)C2(F)F)(c2ccccc2)c2ccc(C(=O)NC(C)C)cc2)cc1 (stereo partly shown) [MeT]
Percent Inhibition ([3]; 20.0 mg/kg): 41%
Percent Inhibition ([3]; 40.0 mg/kg): 58%
Percent Inhibition ([3]; 80.0 mg/kg): 92%
Activity (overall) [3]: ++ (80-94% Inhibition)

IC50 (CCRF-CEM cells): 1.7 µg/mL (≈ 2.7 µM)
SMILES: CC(C)NC(=O)c1ccc(C(Nc2nc(N)nc3c2ncn3[C@@H]2O[C@H](CO)[C@@H](O)C2(F)F)(c2ccccc2)c2ccccc2)cc1 [T, N-Isopropyl-4-[bis-phenyl-6-N-[2-amino-9-(2'-deoxy-2',2'-difluoro-β-ribofuranosyl)purinyl]methyl]benzamide]
fragmentation under pH conditions used ([4]; pH 5.40, 6.40, 7.40, up to t = 800): no fragmentation
Percent Inhibition ([3]; 17.5 mg/kg): 14%
Percent Inhibition ([3]; 35.0 mg/kg): 28%
Percent Inhibition ([3]; 70.0 mg/kg): 04%
Activity (overall) [3]: - (<60% Inhibition)

IC50 (CCRF-CEM cells): 0.084 µg/mL (≈ 0.122 µM)
t1/2 [4, 5]: 2.35 h
t1/2 [4, 6]: 23.3 h
t1/2 [4, 7]: 133.3 h
SMILES: COc1ccc(C(Nc2nc(N)nc3c2ncn3[C@@H]2O[C@H](CO)[C@@H](O)C2(F)F)(c2ccc(OC)cc2)c2cccc(C(=O)NC(C)C)c2)cc1 [mDMT, N-Isopropyl-3-[bis-(4-methoxyphenyl)-6-N-[2-amino-9-(2'-deoxy-2',2'-difluoro-β-ribofuranosyl)purinyl]methyl]benzamide]
